# Patent US20240122926A1, “APELIN RECEPTOR MODULATORS FOR TREATING MUSCLE CONDITIONS” (priority 2022, published 2024)
# Tests used:
# [1] = 14-day IV study in rat (toxicology exposure); format: in vivo
# Procedure: The updated exposure margins considering the highest maximum exposures in rats and dogs are calculated as follows: maximum exposure in the rat (male) was in the 14-day IV study and at the 300 mg/kg dose, the AUClast is 1070 μg*hr/mL; maximum exposure in dogs occurred at the 300 mg/kg dose in the 9-month oral toxicity study and the AUClast is 1310*μg·hr/mL.
# [2] = system: Twenty-month-old male C57/Bl6 mice; assay: Hindlimb immobilization (casting, 21 days) disuse atrophy in aged mice, muscle wet weight; format: in vivo, mouse; settings: 50 mg/kg BID P.O.; 21 days immobilization (placebo group 25%)
# Text: Limb immobilization causes a loss of gross skeletal muscle mass accompanied by a significant decrease in apelin transcript levels.
# One week into the treatment, mice underwent modified hindlimb casting on one limb. Mice were anesthetized with isoflurane inhalation and the hindlimb wiped with povidone-iodine, then ethanol, and loosely wrapped in surgical gauze. A custom-made plastic immobilization device was placed on the limb, with the foot in full extension, so as to result in the maximal in vivo unloading of the plantarflexor group. The device was fixed to the hindlimb using Vetbond and the animal returned to its cage. After 3 weeks of treatment following casting, mice were euthanized 1 hour after the final ZT1 dose, and tissues isolated, weighed, then flash frozen in liquid nitrogen for subsequent western blot analysis.
# [3] = system: healthy volunteers aged ≥65 years; assay: Phase 1b bed rest study Part B (MD), limb circumference and ultrasound muscle dimensions; format: in vivo, human
# Procedure: In each of the 3 cohorts in Part B, 30 total subjects are enrolled to receive treatment in either Cohort 1A, Cohort 1B, or Cohort 1C. Cohort 1A includes 10 subjects who all receive placebo NS over a 1 hour infusion for 10 days on Days 1 through Day 10. […] Patients are at bed rest for the entire 10-day duration of treatment.
# Ultrasound images were collected during the following study visits: Day −1 (baseline), Day 6 (pre-dose), and day 11 (end of treatment). Ultrasounds were performed of both the vastus lateralis and gastroenemius to measure cross-sectional area, color flow doppler, antero-posterior (AP) diameter, and echo density. Muscle circumference was also measured. Ultrasound imaging was conducted by the same operator throughout the study for all subjects. Ultrasound readings were done by the same reader throughout the study for all subjects. […] The leg measured (right vs. left) and leg location (medial vs. lateral) remained consistent for all ultrasounds.
# Muscle circumference was measured in centimeters (cm) using a measuring tape and recorded on the ultrasound worksheet at the time of imaging.
# The ultrasound images were collected before conducting the skeletal muscle micro-biopsy. Prior to testing, subjects were instructed to wear shorts on testing day to avoid compression of the upper leg musculature and to expose the upper portion of the thigh. Subjects were required to lay supine on an examination table with both legs fully extended for a minimum of 5 minutes to allow for fluid shifts to occur. Each subject was instructed to lay on their non-dominant side to obtain skeletal muscle ultrasound images of the vastus lateralis and gastrocnemius in the dominant leg. Subjects were positioned with their legs on top of one another and slightly bent at the knee. Ultrasound images of the vastus lateralis will be captured at 50% of the straight-line distance from the greater trochanter and the lateral epicondyle of the femur.
# To ensure proper probe placement and consistent image capture location, a dotted line was drawn transversely and longitudinally along the surface of the skin from the aforementioned location. All measures of muscle morphology were obtained using a B-mode, 12-MHz linear probe US (General Electric vivid E9) to provide acoustic contact without depressing the dermal layer of the skin. Longitudinal B-mode and transverse field of view (FOV) images were acquired during each exam and analyzed. Ultrasound settings remained fixed for examination of each subject: image gain was set at 50 decibels (dB), dynamic range was set at 72, and image depth was set at 5 cm. Three panoramic transverse images (PTI) were captured in the transverse plane, perpendicular to the long axis of the muscle. These images utilized the extended-field-of-view ultrasonography in order to include entire area of the vastus lateralis in a single panoramic image.
# Additionally, three single longitudinal images (SLI) were captured in the longitudinal plane, parallel to the long axis of the muscle. […] This same technique was applied to ultrasound of the gastrocnemius. Either the medial head or lateral head of the gastrocnemius was used for ultrasound evaluation, but not both. The same head was used for all gastrocnemius ultrasounds throughout the study.
# One day before (baseline, D-1) and 5 (D5) and 10 (D10) days after initiation of bed rest, key muscle atrophy endpoints were measured: thigh circumference; cross-sectional area (CSA) and A-P diameter of vastus lateralis (ultrasound); ultrasound muscle quality grade, an index that quantifies fatty degeneration in muscle (ultrasound echo density); and muscle protein synthesis rate (biopsy). Parameters measured during the 10-day bed rest period include thigh circumference, muscle size, muscle quality (e.g., fatty degeneration), and muscle protein synthetic rate.
# [4] = 240 mg IV once daily, 10 days bed rest
smiles,measurement,setting,value
"COc1cccc(OC)c1-n1c(NS(=O)(=O)[C@@H](C)[C@H](C)c2ncc(C)cn2)nnc1-c1cncc(C)c1 [BGE-105, (2S,3R)—N-(4-(2,6-dimethoxyphenyl)-5-(5-methyl-3-pyridinyl)-4H-1,2,4-triazol-3-yl)-3-(5-methyl-2-pyrimidinyl)-2-butanesulfonamide]",predicted human exposure margin Human:Rat,"[1]; 240 mg loading dose + 1440 mg IV for 22 hours, 1036/1070",0.97
same,AUC(0-t),"[1]; in vivo, rat (male), 14-day IV study, 300 mg/kg, read-out: AUClast, maximum exposure",1070 µg·h/mL
same,NOAEL,[1]; rat,maximum dose tested
same,decrease of wet weight of tibialis anterior (TA) muscle in casted limb,[2],3%
same,reduction in loss of vastus lateralis cross-sectional area vs placebo,[3]; [4],> 50%
same,reduction in loss of vastus lateralis muscle thickness vs placebo,[3]; [4],75%
same,"decrease in gastrocnemius diameter, mean percent change from baseline",[3]; 10 days of bed rest (placebo 10.982%),2.942
same,"decrease in gastrocnemius cross-sectional area, mean percent change from baseline",[3]; 10 days of bed rest (placebo 15.72%),7.758%
same,improvement in muscle dimension vs placebo,[3]; Cohort 1B vs Cohort 1A,~75%
same,decrease in calf circumference,[3]; female subjects (placebo 5.486%),1.166%
same,decrease in thigh circumference,[3]; female subjects (placebo 6.06%),1.674%
same,decrease in gastrocnemius cross sectional area,[3]; female subjects (placebo 15.32%),5.558%
same,decrease in vastus lateralis cross sectional area,[3]; female subjects (placebo 23.67%),9.676%
same,reduction in muscle loss from disuse atrophy,[3]; healthy volunteer bed rest study,up to 75%
same,increase in thigh circumference after 10-day bed rest,"[3]; older patients, BGE-105 treated group (placebo 6.438% reduction)",0.8%
same,number of subjects (out of 11) with fully preserved or increased thigh circumference,[3]; over 10 days of bed rest,7
same,percent of subjects with fully preserved or increased thigh circumference,[3]; over 10 days of bed rest,64%
same,decrease in muscle size measured by ultrasound,[3]; treatment group (Cohort 1B) (placebo 21%),5.664%
